Measurements as given in patent US9067889B2, “Biphenylcarboxamides as ROCK kinase inhibitors” (Amakem NV, priority 2011, dated 2015).

Columns and labels:
[1] = Stability assay in human plasma; type: in vitro ADME; settings: 1 μM compound in human plasma, LC-MS/MS
Method: C.2.1. Stability Assay in Human and/or Rat Plasma
Compounds are incubated at a concentration of 1 μM in human plasma (or rat, mice, dog, monkey, minipig or rabbit). Samples are taken at fixed time points and the remnant of compound is determined by LC-MS/MS after protein precipitation.

[2] = Stability assay in rabbit aqueous humor; type: in vitro ADME; settings: 1 μM compound in rabbit aqueous humor, LC-MS/MS
Method: C.2.2. Stability Assay in Rabbit Aqueous Humor
Compounds are incubated at a concentration of 1 μM in rabbit aqueous humor (AH). Samples are taken at fixed time points and the remnant of compound is determined by LC-MS/MS after protein precipitation.

COC(=O)Cc1cccc(NC(=O)c2cccc(-c3cc(C(=O)Nc4ccncc4F)ccc3CN)c2)c1 [Compound 1]
t1/2(min) in human plasma [1]: <60 min | t½ rabbit AH [2]: 58 min
